For data set [1], the target named is T1, wt AgnB2 (LeuRS) (Agrobacterium radiobacter, UniProt B9JQP8). Description: Aminoacylation assay, wt AgnB2. Particulars: pH 7.4.
Description: Aminoacylation activities of AgnB2, LeuRSAt and their mutants were measured in 50 mM HEPES buffer (pH 7.4) containing 20 mM KCl, 25 mM MgCl2, 25 mM β-ME, 4 mM ATP, 500 μM [3,4,5-^3H] L-leucine (20 μCi/mmole), 5 μg/ml inorganic pyrophosphatase, 1 μM BSA, 10 μM of active in vitro transcribed tRNA^Leu and enzymes in the range of 2–8 nM. Reactions were pre-incubated with or without substrate and/or inhibitor and then carried out at 28 °C (37 °C-LeuRSHp). Aliquots of the reaction (5–10 μl) were quenched on 3 mM filter pads (Whatman, GE Healthcare) presoaked with 5% trichloroacetic acid (TCA). The pads were washed thrice with 5% TCA and 90% ethanol at 4 °C and then dried. The amount of Leu-tRNA^Leu was then quantified using scintillation counting. Each reaction was performed in triplicate and analyzed using Kaleidagraph (for Km and kcat determinations) or GraphPad Prism software (for IC50 determination).
For data set [2], the target named is T1, wt AgnB2 (LeuRS). Description: ATP/PPi exchange assay (amino acid activation), AgnB2. Particulars: 28 °C, pH 7.4.
Description: The formation of Leu-AMP by ATP/PPi exchange assays was performed as described earlier[23][50]. Briefly, the reaction buffer contained 50 mM HEPES buffer (pH 7.4), 20 mM KCl, 10 mM MgCl2, 500 μM L-leucine, 4 mM ATP, 1 mM tetrasodium pyrophosphate (NaPPi), 10 μCi/mmol [^32P] NaPPi and 1 μM bovine serum albumin (BSA). The reaction was initiated by addition of 1–4 nM of active enzyme and incubated at 28 °C. Aliquots (5 μl each) were collected over 30 min and quenched in a 10% charcoal slurry containing 0.5% HCl and 50 μl of 200 mM sodium pyrophosphate in 1 M HCl. Liquid scintillation counting was then used to measure the amount of [^32P]-PPi incorporation into ATP that was adsorbed onto the charcoal.
In data set [3] the target is T2, LeuRSAt (Agrobacterium tumefaciens, UniProt Q8UBV2). Description: ATP/PPi exchange assay (amino acid activation), LeuRSAt. In kind it is biochemical, A. tumefaciens. Particulars: 28 °C, pH 7.4. As for the experimental part:
(§1) The formation of Leu-AMP by ATP/PPi exchange assays was performed as described earlier. Briefly, the reaction buffer contained 50 mM HEPES buffer (pH 7.4), 20 mM KCl, 10 mM MgCl2, 500 μM L-leucine, 4 mM ATP, 1 mM tetrasodium pyrophosphate (NaPPi), 10 μCi/mmol [^32P] NaPPi and 1 μM bovine serum albumin (BSA). The reaction was initiated by addition of 1–4 nM of active enzyme and incubated at 28 °C. Aliquots (5 μl each) were collected over 30 min and quenched in a 10% charcoal slurry containing 0.5% HCl and 50 μl of 200 mM sodium pyrophosphate in 1 M HCl. Liquid scintillation counting was then used to measure the amount of [^32P]-PPi incorporation into ATP that was adsorbed onto the charcoal.

For data set [4], the system named is LeuRSAt (leucyl-tRNA synthetase). Particulars: aminoacylation, substrate, 28 °C, pH 7.4; cited from earlier work.
The target in data set [5] is T2, LeuRSAt. Description: Isothermal titration calorimetry, LeuRSAt. The settings on record: ITC, Leu-AMS binding to LeuRSAt. On the set-up: species or system A. tumefaciens. As for the experimental part:
(§2) Typically, about 4–8 μM active protein solution and a 10-fold higher ligand concentration were prepared in buffer containing 50 mM HEPES (pH 7.4), 20 mM KCl 10 mM MgCl2 and 1 mM β-ME. The titrations were carried out in triplicate at 28 °C. The data was then analyzed using Origin software (version 7) and fitted to a one-site or a two-site binding model to obtain the binding affinity (Kd), stoichiometry (N) and enthalpy (ΔH) for each complex.

In data set [6] the target is T1, wt AgnB2 (LeuRS). Description: Isothermal titration calorimetry, wt AgnB2. Particulars: ITC, ligand binding to AgnB2 alone, 28 °C, pH 7.4; read-out: Kd. It is filed as binding, Agrobacterium radiobacter K84. As for the experimental part: as §2
Data set [7] deals with CC(C)C[C@H](N)C(=O)O. Description: ATP/PPi exchange assay (amino acid activation), LeuRSAt. Particulars: other: ATP-PPi exchange, substrate, 28 °C, pH 7.4. It is filed as biochemical, A. tumefaciens. The method, then:
as §1

Data set [8] concerns the target T3, AgnB2 (TM84-resistant leucyl-tRNA synthetase) (Agrobacterium radiobacter K84 (plasmid pAgK84)) (UniProt B9JQP8).
T3 sequence: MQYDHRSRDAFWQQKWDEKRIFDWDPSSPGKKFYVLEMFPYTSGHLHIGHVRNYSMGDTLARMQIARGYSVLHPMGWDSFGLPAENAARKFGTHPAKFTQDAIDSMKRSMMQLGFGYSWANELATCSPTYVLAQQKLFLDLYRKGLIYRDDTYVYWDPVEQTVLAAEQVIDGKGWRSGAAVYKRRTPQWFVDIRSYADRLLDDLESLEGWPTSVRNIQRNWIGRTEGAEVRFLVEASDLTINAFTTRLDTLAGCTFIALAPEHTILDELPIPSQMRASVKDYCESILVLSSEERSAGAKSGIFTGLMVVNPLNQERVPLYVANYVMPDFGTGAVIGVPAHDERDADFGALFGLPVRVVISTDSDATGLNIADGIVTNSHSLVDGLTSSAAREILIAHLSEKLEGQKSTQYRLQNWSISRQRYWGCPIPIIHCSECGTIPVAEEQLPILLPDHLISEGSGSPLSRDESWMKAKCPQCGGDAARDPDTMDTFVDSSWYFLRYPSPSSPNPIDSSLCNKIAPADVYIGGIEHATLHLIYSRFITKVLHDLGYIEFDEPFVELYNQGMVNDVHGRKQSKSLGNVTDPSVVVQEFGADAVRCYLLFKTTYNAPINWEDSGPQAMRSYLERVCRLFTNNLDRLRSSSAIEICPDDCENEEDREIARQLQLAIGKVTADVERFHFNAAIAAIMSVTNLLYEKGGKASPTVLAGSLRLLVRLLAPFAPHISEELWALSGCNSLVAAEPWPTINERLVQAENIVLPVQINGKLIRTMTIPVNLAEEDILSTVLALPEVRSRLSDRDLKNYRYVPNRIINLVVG
Description: ITC.

Data set [9] has as its system CC(C)C[C@H](N)C(=O)O. Description: purified protein, by the assay type. The settings on record: substrate, 28 °C, pH 7.4.
Setting [10] is: aminoacylation, substrate, 28 °C.

T2 sequence (Q8UBV2 whole entry): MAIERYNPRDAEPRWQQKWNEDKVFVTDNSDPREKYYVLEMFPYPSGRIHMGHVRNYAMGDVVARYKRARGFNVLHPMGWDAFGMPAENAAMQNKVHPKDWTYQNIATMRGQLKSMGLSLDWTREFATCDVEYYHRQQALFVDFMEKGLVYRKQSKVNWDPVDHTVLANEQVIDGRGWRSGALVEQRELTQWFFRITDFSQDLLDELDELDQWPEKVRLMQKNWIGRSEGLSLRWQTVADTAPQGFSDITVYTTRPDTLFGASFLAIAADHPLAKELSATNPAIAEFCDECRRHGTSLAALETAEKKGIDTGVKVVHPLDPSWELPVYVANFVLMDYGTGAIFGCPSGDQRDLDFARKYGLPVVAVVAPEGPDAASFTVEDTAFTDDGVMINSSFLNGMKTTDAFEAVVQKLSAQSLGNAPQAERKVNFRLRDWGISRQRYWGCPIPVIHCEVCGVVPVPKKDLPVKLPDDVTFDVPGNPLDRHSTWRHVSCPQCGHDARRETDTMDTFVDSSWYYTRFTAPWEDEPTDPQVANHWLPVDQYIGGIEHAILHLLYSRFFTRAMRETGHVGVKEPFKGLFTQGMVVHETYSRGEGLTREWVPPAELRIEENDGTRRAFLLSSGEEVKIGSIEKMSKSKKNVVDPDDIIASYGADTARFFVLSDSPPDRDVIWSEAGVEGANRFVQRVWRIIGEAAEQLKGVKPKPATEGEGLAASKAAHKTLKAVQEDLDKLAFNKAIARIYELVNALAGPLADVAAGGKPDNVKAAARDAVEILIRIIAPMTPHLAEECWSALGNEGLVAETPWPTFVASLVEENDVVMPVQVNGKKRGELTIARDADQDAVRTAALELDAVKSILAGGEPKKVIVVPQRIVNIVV

As to `Nc1ncnc2c1ncn2[C@@H]1O[C@H](COP(=O)(O)OP(=O)(O)OP(=O)(O)O)[C@@H](O)[C@H]1O` [ATP], the Km is 95.4 ± 18.3 µM at wt AgnB2 (LeuRS) [1] (setting [10]); 1.05 ± 0.14 mM at wt AgnB2 (LeuRS) [2] (ATP-PPi exchange, substrate); 357 ± 22 µM on LeuRSAt [3] (ATP-PPi exchange, substrate); 396 ± 83 µM in data set [4]. Moreover, the turnover number (kcat) was 0.43 ± 0.02 s⁻¹ on wt AgnB2 (LeuRS) [1] (setting [10]); 67 ± 8.9 s⁻¹ at wt AgnB2 (LeuRS) [2] (ATP-PPi exchange, substrate); 87 ± 1.5 s⁻¹ on LeuRSAt [3] (ATP-PPi exchange, substrate); 0.33 ± 0.02 s⁻¹ in data set [4].
Consider `CC(C)CC(N)C(=O)NS(=O)(=O)OCC1OC(n2cnc3c(N)ncnc32)C(O)C1O` (stereo not shown) [Leu-AMS, reference compound], for which the figures for the dissociation constant Kd at LeuRSAt [5] and at wt AgnB2 (LeuRS) [6] were 1.6 nM and 4.4 nM, respectively. For the same molecule, the “inhibition of overall aminoacylation reaction” value at wt AgnB2 (LeuRS) [1] (20 nM Leu-AMS, 2 nM wt AgnB2, 28 °C) is given as “potently inhibited”. Also, on wt AgnB2 (LeuRS) [2] (25 nM Leu-AMS, 1 nM enzyme), the “inhibition of amino acid activation (Leu-AMP formation)” value was “potently inhibits”. Besides, on LeuRSAt [3] (25 nM Leu-AMS, 1 nM enzyme), the “inhibition of Leu-AMP formation” value is on record as “potently inhibits”.
In the case of `CC(C)C[C@H](N)C(=O)O` [Leucine], in data set [4], the Km was 38 ± 3.2 µM and the kcat was 0.38 ± 0.01 s⁻¹.
For LeuRSAt (Agrobacterium fabrum str. C58), in the data set with CC(C)C[C@H](N)C(=O)O [7], the Km stood at 9.7 ± 0.7 µM and the catalytic constant (kcat) was found to be 85 ± 1.6 s⁻¹.
Turning to tRNALeu (agrobacterial), in [8], the Kd turned out to be 310 nM.
On to “wt AgnB2 (LeuRS) (Rhizobium rhizogenes K84)”, for which, in the data set with CC(C)C[C@H](N)C(=O)O [9] (other: ATP-PPi exchange), the Michaelis constant (Km) was found to be 12 ± 2 µM and the turnover number (kcat) came to 73 ± 3.6 s⁻¹. Also, in the data set with CC(C)C[C@H](N)C(=O)O [9] (other: aminoacylation), the Michaelis constant (Km) is 28.7 ± 7.3 µM and the kcat came out at 0.35 ± 0.03 s⁻¹.

Values taken from PMC5059758, “Structural characterization of antibiotic self-immunity tRNA synthetase in plant tumour biocontrol agent” (Nature Communications, 2016).
